Source: patent US7618961B2, “Inhibitors of 11-beta-hydroxy steroid dehydrogenase type 1” (Biovitrum AB, priority 2000, dated 2009)
Structures can show the parent of a compound that is named as a salt.

| melting point [°C] | SMILES |
| --- | --- |
| 174 | O=C(O)Cc1csc(NS(=O)(=O)c2cc(Cl)sc2Cl)n1 (as salt: salt) [Example 85A, 2-(2-{[(2,5-Dichloro-3-thienyl)sulfonyl]amino}-1,3-thiazol-4-yl)acetic acid] |
| 198 | Cc1c(Cl)cccc1S(=O)(=O)Nc1nc(CC(=O)O)cs1 (as salt: salt) [Example 87A, 2-(2-{[(3-Chloro-2-methylphenyl)sulfonyl]amino}-1,3-thiazol-4-yl)acetic acid] |
| 173 | CCOC(=O)Cc1csc(NS(=O)(=O)c2ccc(C)cc2)n1 [Example 5A, Ethyl 2-(2-(((4-methylphenyl)sulfonyl)amino)-1,3-thiazol-4-yl)acetate] |
| 154 | CCOC(=O)Cc1csc(NS(=O)(=O)c2cccc(Cl)c2C)n1 [Example 8A, Ethyl 2-(2-{[(3-chloro-2-methylphenyl)sulfonyl]amino}-1,3-thiazol-4-yl)acetate] |
| 182 | CCOC(=O)Cc1csc(NS(=O)(=O)c2ccc(-c3ccccc3)cc2)n1 [Example 10A, Ethyl 2-{2-[([1,1′-biphenyl]-4-ylsulfonyl)amino]-1,3-thiazol-4-yl}acetate] |
| 155 | CCOC(=O)Cc1csc(NS(=O)(=O)c2cccc(Br)c2)n1 [Example 12A, Ethyl 2-(2-{[(3-bromophenyl)sulfonyl]amino}-1,3-thiazol-4-yl)acetate] |
| 171 | CCOC(=O)Cc1csc(NS(=O)(=O)c2ccccc2C(F)(F)F)n1 [Example 25A, Ethyl [2-({[2-(trifluoromethyl)phenyl]sulfonyl}amino)-1,3-thiazol-4-yl]acetate] |
| 145 | CCOC(=O)Cc1csc(NS(=O)(=O)c2cccc(C(F)(F)F)c2)n1 [Example 26A, Ethyl [2-({[3-(trifluoromethyl)phenyl]sulfonyl}amino)-1,3-thiazol-4-yl]acetate] |
| 174 | CCOC(=O)Cc1csc(NS(=O)(=O)c2ccc(C(F)(F)F)cc2)n1 [Example 27A, Ethyl [2-({[4-(trifluoromethyl)phenyl]sulfonyl}amino)-1,3-thiazol-4-yl]acetate] |
| 183 | CCOC(=O)Cc1csc(NS(=O)(=O)c2ccc(Br)cc2)n1 [Example 28A, Ethyl 2-(2-{[(4-bromophenyl)sulfonyl]amino}-1,3-thiazol-4-yl)acetate] |
| 171 | CCOC(=O)Cc1csc(NS(=O)(=O)c2cc(Cl)ccc2Cl)n1 [Example 77A, Ethyl (2-{[(2,5-dichlorophenyl)sulfonyl]amino}-1,3-thiazol-4-yl)acetate] |
| 187 | Cc1ccc(S(=O)(=O)Nc2nc(CC(=O)O)cs2)cc1 [Example 84A, 2-(2-{[(4-Methylphenyl)sulfonyl]amino}-1,3-thiazol-4-yl)acetic acid] |
| 176 | O=C(O)Cc1csc(NS(=O)(=O)c2ccccc2Cl)n1 [Example 86A, (2-{[(2-Chlorophenyl)sulfonyl]amino}-1,3-thiazol-4-yl)acetic acid] |
| 189 | Cc1c(Cl)cccc1S(=O)(=O)Nc1nc(CC(=O)Oc2ccccc2)cs1 [Example 89A, Phenyl 2-(2-{[(3-chloro-2-methylphenyl)sulfonyl]amino}-1,3-thiazol-4-yl)acetate] |
| 187 | COC(=O)Cc1csc(NS(=O)(=O)c2cccc(Cl)c2C)n1 [Example 90A, Methyl (2-{[(3-chloro-2-methylphenyl)sulfonyl]amino}-1,3-thiazol-4-yl)acetate] |
| 183 | CNC(=O)Cc1csc(NS(=O)(=O)c2cc(Cl)sc2Cl)n1 [Example 99A, 2-(2-{[(2,5-Dichloro-3-thienyl)sulfonyl]amino}-1,3-thiazol-4-yl)-N-methylacetamide] |
| 150 | CCNC(=O)Cc1csc(NS(=O)(=O)c2ccc(F)cc2F)n1 [Example 102A, 2-(2-{[(2,4-Difluorophenyl)sulfonyl]amino}-1,3-thiazol-4-yl)-N-ethylacetamide] |

| melting point [°C] | SMILES |
| --- | --- |
| 165 | CNC(=O)Cc1csc(NS(=O)(=O)c2cccc(Cl)c2C)n1 [Example 106A, 2-(2-{[(3-Chloro-2-methylphenyl)sulfonyl]amino}-1,3-thiazol-4-yl)-N-methylacetamide] |
| 96 | CCNC(=O)Cc1csc(NS(=O)(=O)c2cccc(Cl)c2C)n1 [Example 107A, 2-(2-{[(3-Chloro-2-methylphenyl)sulfonyl]amino}-1,3-thiazol-4-yl)-N-ethylacetamide] |
| 202 | Cc1c(Cl)cccc1S(=O)(=O)Nc1nc(CC(=O)Nc2ccccc2)cs1 [Example 108A, 2-(2-{[(3-Chloro-2-methylphenyl)sulfonyl]amino}-1,3-thiazol-4-yl)-N-phenylacetamide] |
| 200 | Cc1c(Cl)cccc1S(=O)(=O)Nc1nc(CC(=O)NC(c2ccccc2)c2ccccc2)cs1 [Example 113A, N-Benzhydryl-2-(2-{[(3-chloro-2-methylphenyl)sulfonyl]amino}-1,3-thiazol-4-yl)acetamide] |
| 84 | Cc1c(Cl)cccc1S(=O)(=O)Nc1nc(CC(=O)N(C)C)cs1 [Example 131A, 2-(2-{[(3-Chloro-2-methylphenyl)sulfonyl]amino}-1,3-thiazol-4-yl)-N,N-dimethylacetamide] |
| 107 | Cc1c(Cl)cccc1S(=O)(=O)Nc1nc(CC(=O)N2CCCC2)cs1 [Example 142A, 3-Chloro-2-methyl-N-{4-[2-oxo-2-(1-pyrrolidinyl)ethyl]-1,3-thiazol-2-yl}benzenesulfonamide] |
| 208 to 209 | Cc1c(Cl)cccc1S(=O)(=O)Nc1nc(CC(=O)N2CCOCC2)cs1 [Example 148A, 3-Chloro-2-methyl-N-{4-[2-(4-morpholinyl)-2-oxoethyl]-1,3-thiazol-2-yl}benzenesulfonamide] |
| 186 to 187 | Cc1cc(Cl)cc(Cl)c1S(=O)(=O)Nc1nc(CC(=O)N2CCOCC2)c(C)s1 [Example 159A, 2,4-Dichloro-6-methyl-N-{5-methyl-4-[2-(4-morpholinyl)2-oxoethyl]-1,3-thiazol-2-yl}benzenesulfonamide] |
| 204 to 206 | Cc1sc(NS(=O)(=O)c2ccc(-c3ccccc3)cc2)nc1CC(=O)N1CCOCC1 [Example 160A, N-{5-methyl-4-[2-(4-morpholinyl)-2-oxoethyl]-1,3-thiazol-2-yl}[1,1′-biphenyl]-4-sulfonamide] |
| 216 to 217 | Cc1sc(NS(=O)(=O)c2c(Cl)cc(Cl)cc2Cl)nc1CC(=O)N1CCOCC1 [Example 161A, 2,4,6-trichloro-N-{5-methyl-4-[2-(4-morpholinyl)-2-oxoethyl]-1,3-thiazol-2-yl}benzenesulfonamide] |
| 194 to 195 | Cc1sc(NS(=O)(=O)c2cccc(Cl)c2C)nc1CC(=O)N1CCOCC1 [Example 162A, 3-chloro-2-methyl-N-{5-methyl-4-[2-(4-morpholinyl)-2-oxoethyl]-1,3-thiazol-2-yl}benzenesulfonamide] |
| 103 to 106 | Cc1c(Cl)cccc1S(=O)(=O)Nc1nc(CC(=O)N2CCSCC2)cs1 [Example 165A, 3-Chloro-2-methyl-N-{4-[2-oxo-2-(4-thiomorpholinyl)ethyl]-1,3-thiazol-2-yl}benzenesulfonamide] |
| 152 to 153 | CCOCCc1nc(NS(=O)(=O)c2cccc(Cl)c2C)sc1CN(C)C [Example 190A, 3-Chloro-N-[5-[(dimethylamino)methyl]-4(2-ethoxyethyl)-1,3-thiazol-2-yl]-2-methylbenzenesulfonamide] |
| 122 | CCC(=O)OCCc1csc(NS(=O)(=O)c2cccc(Cl)c2C)n1 [Example 192B, 2-(2-{[(3-Chloro-2-methylphenyl)sulfonyl]amino}-1,3-thiazol-4-yl)ethyl propionate] |
| 118 | Cc1c(Cl)cccc1S(=O)(=O)Nc1nc(CCOC(=O)C(C)C)cs1 [Example 193A, 2-(2-{[(3-Chloro-2-methylphenyl)sulfonyl]amino}-1,3-thiazol-4-yl)ethyl 2-methylpropanoate] |
| 161 | Cc1c(Cl)cccc1S(=O)(=O)Nc1nc(CCOC(=O)N2CCOCC2)cs1 [Example 196A, 2-(2-{[(3-Chloro-2-methylphenyl)sulfonyl]amino}-1,3-thiazol-4-yl)ethyl 4-morpholinecarboxylate] |
